The target in one assay is T1, CRF2R (Homo sapiens, UniProt Q13324).
T1 sequence (Q13324 1-411): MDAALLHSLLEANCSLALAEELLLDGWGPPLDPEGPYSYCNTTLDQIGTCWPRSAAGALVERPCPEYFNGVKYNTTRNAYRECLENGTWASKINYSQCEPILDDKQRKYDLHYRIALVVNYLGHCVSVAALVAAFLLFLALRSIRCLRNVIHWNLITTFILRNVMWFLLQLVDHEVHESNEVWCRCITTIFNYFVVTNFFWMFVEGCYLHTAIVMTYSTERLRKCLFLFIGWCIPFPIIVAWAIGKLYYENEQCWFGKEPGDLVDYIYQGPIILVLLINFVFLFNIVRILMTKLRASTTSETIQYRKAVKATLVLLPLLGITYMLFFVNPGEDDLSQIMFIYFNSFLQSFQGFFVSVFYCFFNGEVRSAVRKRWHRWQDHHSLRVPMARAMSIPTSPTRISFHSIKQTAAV
The experiment in a line: CRF2R agonist activity (EC50 and Emax), called comparative CRF binding. In kind it is cell-based. The note with it: CRF2R. An excerpt:
(§1) The pharmacological activity and selectivity of the peptides of present invention can be determined using published test procedures. See, e.g, U.S. patent application Ser. No. 09/799,978. Because CRF2R and CRF1R are homologous proteins, it is expected that a certain proportion of agonists for CRF2R will also function as agonists of CRF1R. As discussed above, activation of CRF1R induces activation of the HPA axis since increased corticosteroid production leads to skeletal muscle atrophy. In most cases in which an increase in muscle mass or function is desired, it is not desirable to activate the HPA axis.
(§2) Because it is desirable to discriminate binding between CRF2R, as compared with CRF1R, the assays described above may be conducted using a cell, or membrane from a cell, which expresses only CRF2R or the assays can be conducted with a recombinant source of CRF2R. Cells expressing both forms of CRFR may be modified using homologous recombination to inactivate or otherwise disable the CRF1R gene. Alternatively, if the source of CRFR contains more than one CRFR type, the background signal produced by the receptor which is not of interest must be subtracted from the signal obtained in the assay. […] Known antagonists of CRFRs include, but are not limited to, antalarmin (CRF1R selective), antisauvagine-30 (CRF2R selective) and astressin (nonselective for CRF1R/CRF2R).
(§3) Cell-based assays include the steps of contacting cells which express CRF1R or CRF2R with a peptide of the present invention or control and measuring activation of the CRFR by measuring the expression or activity of components of the CRFR signal transduction pathways.
(§4) For example, after contact with a peptide of the present invention, lysates of the cells can be prepared and assayed for induction of cAMP. cAMP is induced in response to Gαs activation. Because Gαs is activated by receptors other than CRFR and because a test peptide may be exerting its effect through CRFRs or by another mechanism, two control comparisons are relevant for determining whether the peptide increases levels of cAMP via activation of a CRFR. One control compares the cAMP level of cells contacted with the peptide and the cAMP level of cells contacted with a control compound (i.e., the vehicle in which the peptide is dissolved).
(§5) In one example, cAMP induction is measured with the use of DNA constructs containing the cAMP responsive element linked to any of a variety of reporter genes can be introduced into cells expressing CRFRs. Such reporter genes include, but are not limited to, chloramphenicol acetyltransferase (CAT), luciferase, glucuronide synthetase, growth hormone, fluorescent proteins (e.g., Green Fluorescent Protein), or alkaline phosphatase. Following exposure of the cells to the peptide, the level of reporter gene expression can be quantitated to determine the peptide's ability to increase cAMP levels and thus determine the peptide's ability to activate the CRFR.
(§6) In addition to using cells expressing full length CRFRs, cells can be engineered which express CRFRs containing the ligand binding domain of the receptor coupled to, or physically modified to contain, reporter elements or to interact with signaling proteins. For example, a wild type CRFR or CRFR fragment can be fused to a G-protein resulting in activation of the fused G-protein upon agonist binding to the CRFR portion of the fusion protein. […] In addition, alternative pathways for induction of the CRE reporter could be eliminated to reduce basal levels.

A further assay addresses T2, CRF1R (Homo sapiens, UniProt P34998).
T2 sequence (P34998 24-415): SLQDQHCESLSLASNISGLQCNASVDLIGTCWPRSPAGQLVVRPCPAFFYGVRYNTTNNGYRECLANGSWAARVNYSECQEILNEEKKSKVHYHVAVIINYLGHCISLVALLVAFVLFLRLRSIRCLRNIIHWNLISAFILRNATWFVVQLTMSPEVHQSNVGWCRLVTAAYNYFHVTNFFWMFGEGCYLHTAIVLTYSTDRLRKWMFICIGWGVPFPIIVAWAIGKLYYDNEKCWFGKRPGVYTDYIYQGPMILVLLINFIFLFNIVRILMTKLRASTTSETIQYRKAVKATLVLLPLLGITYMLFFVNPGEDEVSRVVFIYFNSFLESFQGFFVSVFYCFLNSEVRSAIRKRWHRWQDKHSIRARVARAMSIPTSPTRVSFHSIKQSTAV
Description: CRF1R agonist activity (EC50 and Emax), called comparative CRF binding. In kind it is cell-based. The conditions noted are these: CRF1R.
Excerpt: as §1, §2, §3, §4, §5, §6

Where two headings read alike, the source gives them in different places. Peptide text beside a SMILES is read from it.

On to `CC[C@H](C)[C@H](N)C(=O)N[C@H](C(=O)N[C@@H](CC(C)C)C(=O)N[C@@H](CO)C(=O)N[C@@H](CC(C)C)C(=O)N[C@@H](CC(=O)O)C(=O)N[C@H](C(=O)N1CCC[C@H]1C(=O)N[C@H](C(=O)NCC(=O)N[C@@H](CC(C)C)C(=O)N[C@@H](CC(C)C)C(=O)N[C@@H](CCC(N)=O)C(=O)N[C@H](C(=O)N[C@@H](CC(C)C)C(=O)N[C@@H](CC(C)C)C(=O)N[C@@H](CCC(=O)O)C(=O)N[C@@H](CCC(N)=O)C(=O)N[C@H](C(=O)N[C@@H](CCCCN)C(=O)N[C@@H](C)C(=O)N[C@@H](CC(N)=O)C(=O)N[C@@H](C)C(=O)N[C@@H](C)C(=O)N[C@@H](CCCNC(=N)N)C(=O)N[C@@H](CCC(=O)O)C(=O)N[C@@H](CCC(N)=O)C(=O)N[C@@H](C)C(=O)N[C@H](C(=O)N[C@H](C(=O)N[C@H](C(=O)N[C@@H](C)C(=O)N[C@@H](CCCNC(=N)N)C(=O)N[C@H](C(=O)N[C@@H](CC(C)C)C(=O)N[C@@H](C)C(=O)N[C@@H](CCCNC(=N)N)C(=O)N[C@H](C(N)=O)C(C)C)[C@@H](C)CC)C(C)C)[C@@H](C)O)[C@@H](C)O)[C@@H](C)O)[C@@H](C)CC)[C@@H](C)CC)C(C)C)C(C)C` [compound 116] (H-IVLSLDVPIGLLQILLEQTKANAAREQATTVARILARV-NH2), for which the EC50 on CRF2R (read-out: CRF2R EC50) and at CRF1R (read-out: CRF1R EC50) was at least 100 nM throughout.
Turning to `CC[C@H](C)[C@H](N)C(=O)N[C@H](C(=O)N[C@@H](CC(C)C)C(=O)N[C@@H](CO)C(=O)N[C@@H](CC(C)C)C(=O)N[C@@H](CC(=O)O)C(=O)N[C@H](C(=O)N1CCC[C@H]1C(=O)N[C@H](C(=O)NCC(=O)N[C@@H](CC(C)C)C(=O)N[C@@H](CC(C)C)C(=O)N[C@@H](CCC(N)=O)C(=O)N[C@H](C(=O)N[C@@H](CC(C)C)C(=O)N[C@@H](CC(C)C)C(=O)N[C@@H](CCC(=O)O)C(=O)N[C@@H](CCC(N)=O)C(=O)N[C@@H](C)C(=O)N[C@@H](CCCCN)C(=O)N[C@@H](C)C(=O)N[C@@H](CCCNC(=N)N)C(=O)N[C@@H](C)C(=O)N[C@@H](C)C(=O)N[C@@H](CCCNC(=N)N)C(=O)N[C@@H](CCC(=O)O)C(=O)N[C@@H](CCC(N)=O)C(=O)N[C@@H](C)C(=O)N[C@H](C(=O)N[C@H](C(=O)N[C@@H](CC(N)=O)C(=O)N[C@@H](C)C(=O)N[C@@H](CCCNC(=N)N)C(=O)N[C@H](C(=O)N[C@@H](CC(C)C)C(=O)N[C@@H](C)C(=O)N[C@@H](CCCNC(=N)N)C(=O)N[C@H](C(N)=O)C(C)C)[C@@H](C)CC)[C@@H](C)O)[C@@H](C)O)[C@@H](C)CC)[C@@H](C)CC)C(C)C)C(C)C` [compound 127] (H-IVLSLDVPIGLLQILLEQAKARAAREQATTNARILARV-NH2; N-terminus assumed), at CRF2R, the “CRF2R (Emax %)” value is listed as “(94) %”. Besides, the EC50 at CRF2R (read-out: CRF2R EC50) worked out at 7.79 nM. Also, the “CRF1R (Emax %)” value at CRF1R was “(6) %”.
For the compound `CC[C@H](C)[C@H](N)C(=O)N[C@H](C(=O)N[C@@H](CC(C)C)C(=O)N[C@@H](CO)C(=O)N[C@@H](CC(C)C)C(=O)N[C@@H](CC(=O)O)C(=O)N[C@H](C(=O)N1CCC[C@H]1C(=O)N[C@H](C(=O)NCC(=O)N[C@@H](CC(C)C)C(=O)N[C@@H](CC(C)C)C(=O)N[C@@H](CCC(N)=O)C(=O)N[C@H](C(=O)N[C@@H](CC(C)C)C(=O)N[C@@H](CC(C)C)C(=O)N[C@@H](CCC(=O)O)C(=O)N[C@@H](CCC(N)=O)C(=O)N[C@H](C(=O)N[C@@H](CCCCN)C(=O)N[C@@H](C)C(=O)N[C@@H](CCCNC(=N)N)C(=O)N[C@@H](C)C(=O)N[C@@H](C)C(=O)N[C@@H](CCCNC(=N)N)C(=O)N[C@@H](CCC(=O)O)C(=O)N[C@@H](CCC(N)=O)C(=O)N[C@@H](C)C(=O)N[C@H](C(=O)N[C@H](C(=O)N[C@@H](CC(N)=O)C(=O)N[C@@H](C)C(=O)N[C@@H](CCCNC(=N)N)C(=O)N[C@H](C(=O)N[C@@H](CC(C)C)C(=O)N[C@@H](C)C(=O)N[C@@H](CCCNC(=N)N)C(=O)N[C@H](C(N)=O)C(C)C)[C@@H](C)CC)[C@@H](C)O)[C@@H](C)O)[C@@H](C)O)[C@@H](C)CC)[C@@H](C)CC)C(C)C)C(C)C` [compound 129] (H-IVLSLDVPIGLLQILLEQTKARAAREQATTNARILARV-NH2), at CRF2R, the “CRF2R (Emax %)” value is recorded as “(92) %”. The half-maximal effective concentration (EC50) at CRF2R (read-out: CRF2R EC50) was found to be 3.83 nM. In addition, on CRF1R, the “CRF1R (Emax %)” value was “(12) %”.
With `CC[C@H](C)[C@H](N)C(=O)N[C@H](C(=O)N[C@@H](CC(C)C)C(=O)N[C@@H](CO)C(=O)N[C@@H](CC(C)C)C(=O)N[C@@H](CC(=O)O)C(=O)N[C@H](C(=O)N1CCC[C@H]1C(=O)N[C@H](C(=O)NCC(=O)N[C@@H](CC(C)C)C(=O)N[C@@H](CC(C)C)C(=O)N[C@@H](CCC(N)=O)C(=O)N[C@H](C(=O)N[C@@H](CC(C)C)C(=O)N[C@@H](CC(C)C)C(=O)N[C@@H](CCC(=O)O)C(=O)N[C@@H](CCC(N)=O)C(=O)N[C@@H](C)C(=O)N[C@@H](C)C(=O)N[C@@H](C)C(=O)N[C@@H](C)C(=O)N[C@@H](CCCNC(=N)N)C(=O)N[C@@H](CCC(=O)O)C(=O)N[C@@H](CCC(N)=O)C(=O)N[C@@H](C)C(=O)N[C@H](C(=O)N[C@H](C(=O)N[C@@H](CC(N)=O)C(=O)N[C@@H](C)C(=O)N[C@@H](CCCNC(=N)N)C(=O)N[C@H](C(=O)N[C@@H](CC(C)C)C(=O)N[C@@H](C)C(=O)N[C@@H](CCCNC(=N)N)C(=O)N[C@H](C(N)=O)C(C)C)[C@@H](C)CC)[C@@H](C)O)[C@@H](C)O)[C@@H](C)CC)[C@@H](C)CC)C(C)C)C(C)C` [compound 134] (H-IVLSLDVPIGLLQILLEQAAAAREQATTNARILARV-NH2), the EC50 on CRF2R (CRF2R EC50 (nM)) and at CRF1R (CRF1R EC50 (nM)) was over 100 nM in each case.
For the compound `CC[C@H](C)[C@H](N)C(=O)N[C@H](C(=O)N[C@@H](CC(C)C)C(=O)N[C@@H](CO)C(=O)N[C@@H](CC(C)C)C(=O)N[C@@H](CC(=O)O)C(=O)N[C@H](C(=O)N1CCC[C@H]1C(=O)N[C@H](C(=O)NCC(=O)N[C@@H](CC(C)C)C(=O)N[C@@H](CC(C)C)C(=O)N[C@@H](CCC(N)=O)C(=O)N[C@H](C(=O)N[C@@H](CC(C)C)C(=O)N[C@@H](CC(C)C)C(=O)N[C@@H](CCC(=O)O)C(=O)N[C@@H](CCC(N)=O)C(=O)N[C@@H](C)C(=O)N[C@@H](C)C(=O)N[C@@H](CCCNC(=N)N)C(=O)N[C@@H](C)C(=O)N[C@@H](C)C(=O)N[C@@H](CCCNC(=N)N)C(=O)N[C@@H](CCC(=O)O)C(=O)N[C@@H](CCC(N)=O)C(=O)N[C@@H](C)C(=O)N[C@H](C(=O)N[C@H](C(=O)N[C@@H](CC(N)=O)C(=O)N[C@@H](C)C(=O)N[C@@H](CCCNC(=N)N)C(=O)N[C@H](C(=O)N[C@@H](CC(C)C)C(=O)N[C@@H](C)C(=O)N[C@@H](CCCNC(=N)N)C(=O)N[C@H](C(N)=O)C(C)C)[C@@H](C)CC)[C@@H](C)O)[C@@H](C)O)[C@@H](C)CC)[C@@H](C)CC)C(C)C)C(C)C` [compound 135] (H-IVLSLDVPIGLLQILLEQAARAAREQATTNARILARV-NH2), the EC50 on CRF2R (read-out: CRF2R EC50) and at CRF1R (read-out: CRF1R EC50) was over 100 nM throughout.
